Where two headings read alike, the source gives them in different places.
What was measured:
Type in all cases: in vivo
Heliothis virescens = Heliothis virescens (Tobacco Budworm) egg test on artificial diet; settings: 96 h, 200 ppm (concentration in well 18 ppm), eggs 0-24 h old on artificial diet, 4 days, egg mortality, larval mortality, growth regulation
Tetranychus urticae = Tetranychus urticae (Two-Spotted Spider Mite) bean leaf disc spray test; settings: foliar, 192 h, read-out: control of Tetranychus urticae
Plutella xylostella = Plutella xylostella (Diamond Back Moth) artificial diet MTP test; settings: 144 h, 200 ppm (concentration in well 18 ppm), L2 larvae, 6 days, larval mortality, growth regulation
Spodoptera littoralis = Spodoptera littoralis (Egyptian Cotton Leafworm) cotton leaf disc spray test; settings: foliar, 72 h, 200 ppm spray on cotton leaf discs, L1 larvae, mortality, feeding behavior, growth regulation 3 DAT
Diabrotica balteata = Diabrotica balteata (Corn Root Worm) artificial diet MTP test; settings: 120 h, 200 ppm (concentration in well 18 ppm), L2 larvae, 5 days, larval mortality, growth regulation
[1] = 200 ppm spray on bean leaf discs, mite populations of mixed ages, 8 days, egg, larval and adult mortality

Measured: pest or weed control at 200 ppm

COc1c(NC(=O)c2ccc([N+](=O)[O-])cc2Cl)cccc1C(=O)Nc1c(Cl)cc(C(F)(C(F)(F)F)C(F)(F)C(F)(F)F)cc1Br (stereo not drawn) [B11]
≥ 80%: Heliothis virescens | Tetranychus urticae; [1] | Plutella xylostella | Spodoptera littoralis

COc1c(NC(=O)c2ccc(OC(F)(F)F)cc2)cccc1C(=O)Nc1c(Cl)cc(C(F)(C(F)(F)F)C(F)(F)C(F)(F)F)cc1Br (stereo not drawn) [B13]
≥ 80%: Heliothis virescens | Tetranychus urticae; [1] | Plutella xylostella | Spodoptera littoralis

COc1c(NC(=O)c2ccc(F)cc2F)cccc1C(=O)Nc1c(Cl)cc(C(F)(C(F)(F)F)C(F)(F)C(F)(F)F)cc1Br (stereo not drawn) [B23]
≥ 80%: Heliothis virescens | Tetranychus urticae; [1] | Plutella xylostella | Spodoptera littoralis

COc1c(NC(=O)c2ccc([N+](=O)[O-])o2)cccc1C(=O)Nc1c(Cl)cc(C(F)(C(F)(F)F)C(F)(F)C(F)(F)F)cc1Br (stereo not drawn) [B61]
≥ 80%: Diabrotica balteata | Heliothis virescens | Tetranychus urticae; [1] | Plutella xylostella | Spodoptera littoralis

COc1c(NC(=O)c2cccc([N+](=O)[O-])c2C)cccc1C(=O)Nc1c(Cl)cc(C(F)(C(F)(F)F)C(F)(F)C(F)(F)F)cc1Br (stereo not drawn) [B69]
≥ 80%: Diabrotica balteata | Heliothis virescens | Tetranychus urticae; [1] | Plutella xylostella | Spodoptera littoralis

COc1c(NC(=O)c2sc(C)nc2C)cccc1C(=O)Nc1c(Cl)cc(C(F)(C(F)(F)F)C(F)(F)C(F)(F)F)cc1Br (stereo not drawn) [B96]
≥ 80%: Diabrotica balteata | Heliothis virescens | Tetranychus urticae; [1] | Plutella xylostella | Spodoptera littoralis

COc1c(NC(=O)c2sc(C(F)(F)F)nc2C)cccc1C(=O)Nc1c(Cl)cc(C(F)(C(F)(F)F)C(F)(F)C(F)(F)F)cc1Br (stereo not drawn) [B104]
≥ 80%: Heliothis virescens | Tetranychus urticae; [1] | Plutella xylostella | Spodoptera littoralis

COc1c(NC(=O)c2ccc(Br)cc2C)cccc1C(=O)Nc1c(Cl)cc(C(F)(C(F)(F)F)C(F)(F)C(F)(F)F)cc1Br (stereo not drawn) [B138]
≥ 80%: Heliothis virescens | Tetranychus urticae; [1] | Plutella xylostella | Spodoptera littoralis

COc1c(NC(=O)c2ccc(Br)c(OC)c2C)cccc1C(=O)Nc1c(Cl)cc(C(F)(C(F)(F)F)C(F)(F)C(F)(F)F)cc1Br (stereo not drawn) [B139]
≥ 80%: Heliothis virescens | Tetranychus urticae; [1] | Plutella xylostella | Spodoptera littoralis

COc1c(NC(=O)c2c(Cl)cccc2Cl)cccc1C(=O)Nc1c(Cl)cc(C(F)(C(F)(F)F)C(F)(F)C(F)(F)F)cc1Br (stereo not drawn) [B158]
≥ 80%: Diabrotica balteata | Heliothis virescens | Tetranychus urticae; [1] | Plutella xylostella | Spodoptera littoralis

COc1c(NC(=O)c2c(C)cc(Br)cc2Cl)cccc1C(=O)Nc1c(Cl)cc(C(F)(C(F)(F)F)C(F)(F)C(F)(F)F)cc1Br (stereo not drawn) [B159]
≥ 80%: Diabrotica balteata | Heliothis virescens | Tetranychus urticae; [1] | Plutella xylostella | Spodoptera littoralis

COc1c(NC(=O)c2ccc([N+](=O)[O-])c(Cl)c2)cccc1C(=O)Nc1c(Cl)cc(C(F)(C(F)(F)F)C(F)(F)C(F)(F)F)cc1Br (stereo not drawn) [B170]
≥ 80%: Diabrotica balteata | Heliothis virescens | Tetranychus urticae; [1] | Plutella xylostella | Spodoptera littoralis

COc1c(NC(=O)c2ccc([N+](=O)[O-])c(C(F)(F)F)c2)cccc1C(=O)Nc1c(Cl)cc(C(F)(C(F)(F)F)C(F)(F)C(F)(F)F)cc1Br (stereo not drawn) [B179]
≥ 80%: Diabrotica balteata | Heliothis virescens | Tetranychus urticae; [1] | Plutella xylostella | Spodoptera littoralis

COc1c(NC(=O)c2cccc([N+](=O)[O-])c2)cccc1C(=O)Nc1c(Cl)cc(C(F)(C(F)(F)F)C(F)(F)C(F)(F)F)cc1Br (stereo not drawn) [B193]
≥ 80%: Heliothis virescens | Tetranychus urticae; [1] | Plutella xylostella | Spodoptera littoralis

COc1c(NC(=O)c2cccnc2F)cccc1C(=O)Nc1c(Cl)cc(C(F)(C(F)(F)F)C(F)(F)C(F)(F)F)cc1Br (stereo not drawn) [B194]
≥ 80%: Diabrotica balteata | Heliothis virescens | Tetranychus urticae; [1] | Plutella xylostella | Spodoptera littoralis

COc1c(NC(=O)c2ccc([N+](=O)[O-])c([N+](=O)[O-])c2)cccc1C(=O)Nc1c(Cl)cc(C(F)(C(F)(F)F)C(F)(F)C(F)(F)F)cc1Br (stereo not drawn) [B195]
≥ 80%: Heliothis virescens | Tetranychus urticae | Plutella xylostella | Spodoptera littoralis

COc1c(NC(=O)c2ccc([N+](=O)[O-])cc2C)cccc1C(=O)Nc1c(Cl)cc(C(F)(C(F)(F)F)C(F)(F)C(F)(F)F)cc1Br (stereo not drawn) [B196]
≥ 80%: Tetranychus urticae; [1] | Plutella xylostella | Spodoptera littoralis

COc1c(NC(=O)c2ccc(C#N)cc2Cl)cccc1C(=O)Nc1c(Cl)cc(C(F)(C(F)(F)F)C(F)(F)C(F)(F)F)cc1Br (stereo not drawn) [B198]
≥ 80%: Heliothis virescens | Tetranychus urticae; [1] | Plutella xylostella | Spodoptera littoralis

COc1c(NC(=O)c2ccco2)cccc1C(=O)Nc1c(Cl)cc(C(F)(C(F)(F)F)C(F)(F)C(F)(F)F)cc1Cl (stereo not drawn) [C12]
≥ 80%: Diabrotica balteata | Heliothis virescens | Tetranychus urticae; [1] | Plutella xylostella | Spodoptera littoralis

COc1c(NC(=O)c2cc(F)c(C#N)cc2F)cccc1C(=O)Nc1c(Cl)cc(C(F)(C(F)(F)F)C(F)(F)F)cc1Cl [E24]
≥ 80%: Diabrotica balteata | Heliothis virescens | Tetranychus urticae; [1] | Plutella xylostella | Spodoptera littoralis

COc1c(NC(=O)c2ccccc2F)cccc1C(=O)Nc1c(C)cc(C(F)(C(F)(F)F)C(F)(F)C(F)(F)F)cc1C (stereo not drawn) [F1]
≥ 80%: Diabrotica balteata | Heliothis virescens | Tetranychus urticae; [1] | Plutella xylostella | Spodoptera littoralis

COc1c(NC(=O)c2ccc(OC(F)(F)F)cc2)cccc1C(=O)Nc1c(C)cc(C(F)(C(F)(F)F)C(F)(F)C(F)(F)F)cc1C (stereo not drawn) [F5]
≥ 80%: Heliothis virescens | Tetranychus urticae; [1] | Plutella xylostella | Spodoptera littoralis

COc1c(NC(=O)c2ccc(Cl)cc2Cl)cccc1C(=O)Nc1c(C)cc(C(F)(C(F)(F)F)C(F)(F)C(F)(F)F)cc1C (stereo not drawn) [F15]
≥ 80%: Diabrotica balteata | Heliothis virescens | Tetranychus urticae; [1] | Plutella xylostella | Spodoptera littoralis

COc1c(NC(=O)c2ccc(S(C)(=O)=O)cc2)cccc1C(=O)Nc1c(C)cc(C(F)(C(F)(F)F)C(F)(F)C(F)(F)F)cc1C (stereo not drawn) [F18]
≥ 80%: Diabrotica balteata | Heliothis virescens | Tetranychus urticae; [1] | Plutella xylostella | Spodoptera littoralis

COc1c(NC(=O)c2ccc([N+](=O)[O-])cc2C)cccc1C(=O)Nc1c(C)cc(C(F)(C(F)(F)F)C(F)(F)C(F)(F)F)cc1C (stereo not drawn) [F24]
≥ 80%: Diabrotica balteata | Heliothis virescens | Tetranychus urticae; [1] | Plutella xylostella | Spodoptera littoralis

COc1c(NC(=O)c2c(F)cc(F)cc2F)cccc1C(=O)Nc1c(C)cc(C(F)(C(F)(F)F)C(F)(F)C(F)(F)F)cc1C (stereo not drawn) [F25]
≥ 80%: Diabrotica balteata | Heliothis virescens | Tetranychus urticae; [1] | Plutella xylostella | Spodoptera littoralis

COc1c(NC(=O)c2ccc(F)cc2C)cccc1C(=O)Nc1c(C)cc(C(F)(C(F)(F)F)C(F)(F)C(F)(F)F)cc1C (stereo not drawn) [F27]
≥ 80%: Diabrotica balteata | Heliothis virescens | Tetranychus urticae; [1] | Plutella xylostella | Spodoptera littoralis

COc1c(NC(=O)c2ccc([N+](=O)[O-])cc2Cl)cccc1C(=O)Nc1c(C)cc(C(F)(C(F)(F)F)C(F)(F)C(F)(F)F)cc1C (stereo not drawn) [F28]
≥ 80%: Diabrotica balteata | Heliothis virescens | Tetranychus urticae; [1] | Spodoptera littoralis

COc1c(NC(=O)c2ccc(C#N)cc2C)cccc1C(=O)Nc1c(Cl)cc(C(F)(C(F)(F)F)C(F)(F)F)cc1Br [G1]
≥ 80%: Diabrotica balteata | Heliothis virescens | Tetranychus urticae; [1] | Plutella xylostella | Spodoptera littoralis

COc1c(NC(=O)c2ccc(C#N)cc2Cl)cccc1C(=O)Nc1c(Cl)cc(C(F)(C(F)(F)F)C(F)(F)F)cc1Br [G2]
≥ 80%: Diabrotica balteata | Heliothis virescens | Tetranychus urticae; [1] | Plutella xylostella | Spodoptera littoralis

CCc1cc(C(F)(C(F)(F)F)C(F)(F)F)cc(C)c1NC(=O)c1cccc(NC(=O)c2c(F)cc(C#N)cc2F)c1OC [J2]
≥ 80%: Diabrotica balteata | Heliothis virescens | Tetranychus urticae; [1] | Plutella xylostella

From patent publication US20120295907A1, “INSECTICIDAL COMPOUNDS” (SYNGENTA CROP PROTECTION, LLC, priority 2009, published 2012)
